Assay results taken from patent publication US12071436B2, “Anti-parasitic compounds and uses thereof” (Memorial Sloan-Kettering Cancer Center, priority 2016, dated 2024).
Like-named read-outs stand apart in the source and are kept apart here.

Assays:
[1] = system: HepG2 human hepatoma cells; experiment: HepG2 cytotoxicity, MTS cell proliferation assay; assay type: cell-based; conditions: 48 h, n=1
Procedure: (§1) Select compounds described herein were evaluated for structure-activity analyses for anti-plasmodial activity in vitro. For Dd2 EC50 (M), calculations were for n=3. For HepG2 EC50 (M), calculations were for n=1. For the human microsomal stability determination, t was 60 minutes.
Selected compounds were evaluated for cytotoxicity using HepG2 human hepatoma cells. A 384-well clear bottom plate was seeded with 2,500 cells/well and incubated for 24 h. Serial dilutions of the compound (were added to the plate and plates were incubated for an additional 48 h. Viability of cells were assessed by MTS [(3-(4,5-dimethylthiazol-2-yl)-5-(3-carboxymethoxyphenyl)-2-(4-sulfophenyl)-2H-tetrazolium) cell proliferation assay (CellTiter 96® Aqueous non-radioactive cell proliferation assay, Promega) (See Cory et al., Cancer Communications, 3, 1991, p. 207-212).

[2] = Plasma pharmacokinetics and liver distribution study in female BALB/c mice; assay type: in vivo, mouse; conditions: 100 mg/kg, female BALB/c mice; for Tmax: mouse, plasma, read-out: Tmax (plasma)
Procedure: A plasma pharmacokinetics and liver distribution study of selected compounds, including Pyrrolopyridine-008 (2015-foleyc-216), Pyrrolopyridine-D20-ent (2015-foleyc-217), and Pyrrolopyridine-M03 (2015-foleyc-218), in female BALB/c mice was conducted following a single intraperitoneal and oral administration. […] The blood samples were collected from a set of […] mice at each time point in labeled micro centrifuge tube containing K2EDTA as anticoagulant. Plasma samples were separated by centrifugation at 4000 rpm for 10 min and stored below −70° C. until bioanalysis. After collection of blood sample, animals were humanely euthanized by carbon dioxide asphyxiation to collect liver from Group 1 and Group 2 at all the time points. The collected tissues were rinsed in PBS and were homogenized with nine times of liver weight in ice cold phosphate buffer saline (pH 7.4) and stored below −70° C. until bio-analysis. Total homogenate volume was ten times the tissue weight. All samples were processed for analysis by protein precipitation using acetonitrile and analyzed with fit-for-purpose LC-MS/MS method (LLOQ: 2.01 ng/mL for plasma and 50.30 ng/g for liver). Pharmacokinetic parameters were calculated using the non-compartmental analysis tool of Phoenix WinNonlin® (Version 6.3).

[3] = system: P. falciparum Dd2; experiment: Anti-plasmodial growth inhibition, SYBR green I-based DNA quantification; assay type: cell-based; conditions: Plasmodium falciparum, 72 h incubation, n=3
Procedure: as §1
Different dilutions of the compound in RPMI 1640 (Life Technologies) from a stock of 10 mM in dimethyl sulfoxide (DMSO) were added to the culture at a 1% parasitemia and 2% hematocrit in 96-well black plates (Santa Cruz Biotechnology). Maximum DMSO concentration in the culture never exceeded 0.25%. Chloroquine at 1 μM was used as a positive control to determine the baseline value. Following 72 h incubation at 37° C., the ability of the compounds to inhibit growth of the parasite was determined by a SYBR green I-based DNA quantification assay (See Bennett et al., 2004, Chemother. 48, 1807-1810; see also Johnson et al., 2007, Antimicrob. Agents. Chemother. 51, 1926-1933; Smilkstein et al., 2004, Antimicrob. Agents. Chemother. 48, 1803-1806). EC50 was calculated (n=3) from a dose response curve that was generated from a concentration range of 0-20 μM using GraphPad Prism v5.0.

[4] = system: Trypanosoma cruzi parasites; experiment: Trypanosoma cruzi in vitro IC50 (structure-activity analyses); assay type: cell-based; conditions: infection with Trypanosoma cruzi parasites for 72 hours and treatment with the compound for 72 hours
Procedure: Select compounds described herein were evaluated for structure-activity analyses in vitro.

[5] = Cytotoxicity (Table 1); assay type: cell-based
[6] = ip, single intraperitoneal dose

Row | Structure (SMILES) | EC50 [1] [µM] | EC50 [3] [µM] | IC50 [4] [µM] | Cytotoxicity [5] [µM] | also measured
1 | CC(C)(C)[S@@+]([O-])N1Cc2cc(C(=O)NCc3ccc4c(c3)OCO4)nc(-c3ccccc3)c2[C@H]1CCO [2015-foleyc-217, (R)-N-(benzo[d][1,3]dioxol-5-ylmethyl)-2-((R)-tert-butylsulfinyl)-3-(2-hydroxyethyl)-4-phenyl-2,3-dihydro-1H-pyrrolo[3,4-c]pyridine-6-carboxamide] | 63 | 2.19 ± 0.32 |  |  | Tmax [2, 6]: 60 min; Tmax ([2]; single oral dose): 30 min; plasma concentrations quantifiable till ([2]; single intraperitoneal dose): 12 h; plasma concentrations quantifiable till ([2]; single oral dose): 12 h
2 | CC(C)(C)[S@@+]([O-])N1Cc2cc(C(=O)NCc3ccccc3F)nc(-c3ccccc3)c2[C@H]1CCO [2015-foleyc-218, (R)-2-((R)-tert-butylsulfinyl)-N-(2-fluorobenzyl)-3-(2-hydroxyethyl)-4-phenyl-2,3-dihydro-1H-pyrrolo[3,4-c]pyridine-6-carboxamide] | > 100 | 1.45 ± 0.28 |  |  | Tmax [2, 6]: 60 min; Tmax ([2]; single oral dose): 30 min; plasma concentrations quantifiable till ([2]; single intraperitoneal dose): 12 h; plasma concentrations quantifiable till ([2]; single oral dose): 12 h
3 | CC(C)NC(=O)N1Cc2cc(C(N)=O)nc(-c3cccc(-c4cc5ccccc5o4)c3)c2[C@H]1CCO [2015-foleyc-248, (R)-4-(3-(benzofuran-2-yl)phenyl)-3-(2-hydroxyethyl)-N^2-isopropyl-1,3-dihydro-2H-pyrrolo[3,4-c]pyridine-2,6-dicarboxamide] | > 100 | > 25 |  |  | 
4 | CC(C)NC(=O)N1Cc2cc(C(=O)NCc3ccc4c(c3)OCO4)nc(-c3cccc(-c4cccnc4)c3)c2[C@H]1CCO [2015-foleyc-253, (R)-N^6-(benzo[d][1,3]dioxol-5-ylmethyl)-3-(2-hydroxyethyl)-N^2-isopropyl-4-(3-(pyridin-3-yl)phenyl)-1,3-dihydro-2H-pyrrolo[3,4-c]pyridine-2,6-dicarboxamide] | 62 | 5.73 ± 0.33 |  |  | 
5 | CC(C)NC(=O)N1Cc2cc(C(=O)NCc3ccccc3F)nc(-c3cccc(-c4cccnc4)c3)c2[C@H]1CCO [2015-foleyc-254, (R)-N^6-(2-fluorobenzyl)-3-(2-hydroxyethyl)-N^2-isopropyl-4-(3-(pyridin-3-yl)phenyl)-1,3-dihydro-2H-pyrrolo[3,4-c]pyridine-2,6-dicarboxamide] | 71 | 9.95 ± 0.89 |  |  | 
6 | CC(C)NC(=O)N1Cc2cc(C(=O)NCC(F)(F)F)nc(-c3cccc(-c4cccnc4)c3)c2[C@H]1CCO [2015-foleyc-255, (R)-3-(2-hydroxyethyl)-N2-isopropyl-4-(3-(pyridin-3-yl)phenyl)-N6-(2,2,2-trifluoroethyl)-1,3-dihydro-2H-pyrrolo[3,4-c]pyridine-2,6-dicarboxamide] | > 100 | 15.5 ± 0.75 |  |  | 
7 | CC(C)NC(=O)N1Cc2cc(C(=O)NCC(F)(F)F)nc(-c3ccccc3)c2[C@H]1CCO [2015-foleyc-267, (R)-3-(2-hydroxyethyl)-N^2-isopropyl-4-phenyl-N^6-(2,2,2-trifluoroethyl)-1,3-dihydro-2H-pyrrolo[3,4-c]pyridine-2,6-dicarboxamide] | > 100 | 3.5 ± 0.97 |  |  | 
8 | CC(C)NC(=O)N1Cc2cc(C(=O)NCc3ccccc3F)nc(-c3cccc(-c4cc5ccccc5o4)c3)c2[C@H]1CCO [2015-foleyc-268, (R)-4-(3-(benzofuran-2-yl)phenyl)-N^6-(2-fluorobenzyl)-3-(2-hydroxyethyl)-N^2-isopropyl-1,3-dihydro-2H-pyrrolo[3,4-c]pyridine-2,6-dicarboxamide] | > 100 | 10.2 ± 0.94 |  |  | 
9 | CCOC(=O)c1cc2c(c(-c3cccc(C#CCN(C)C)c3)n1)CN([S@+]([O-])C(C)(C)C)C2 [Compound 49, Ethyl (R)-2-(tert-butylsulfinyl)-4-(3-(3-(dimethylamino)prop-1-yn-1-yl)phenyl)-2,3-dihydro-1H-pyrrolo[3,4-c]pyridine-6-carboxylate] |  |  | 0.862 | >10 | 
10 | CCOC(=O)c1cc2c(c(-c3cccc(Br)c3)n1)[C@@H](CCO)N([S@+]([O-])C(C)(C)C)C2 [Compound 51, Ethyl (R)-4-(3-bromophenyl)-2-((R)-tert-butylsulfinyl)-3-(2-hydroxyethyl)-2,3-dihydro-1H-pyrrolo[3,4-c]pyridine-6-carboxylate] |  |  | > 10 | >10 | 
11 | CN(C)CC#Cc1cccc(-c2nc(C(=O)NCc3ccc4c(c3)OCO4)cc3c2CN([S@+]([O-])C(C)(C)C)C3)c1 [Compound 57, (R)-N-(Benzo[d][1,3]dioxol-5-ylmethyl)-2-(tert-butylsulfinyl)-4-(3-(3-(dimethylamino)prop-1-yn-1-yl)phenyl)-2,3-dihydro-1H-pyrrolo[3,4-c]pyridine-6-carboxamide] |  |  | 0.495 | >10 | 
12 | CC(C)(C)[S@@+]([O-])N1Cc2cc(C(=O)NCc3ccc4c(c3)OCO4)nc(-c3cccc(Br)c3)c2[C@H]1CCO [Compound 77, (R)-N-(Benzo[d][1,3]dioxol-5-ylmethyl)-4-(3-bromophenyl)-2-((R)-tert-butylsulfinyl)-3-(2-hydroxyethyl)-2,3-dihydro-1H-pyrrolo[3,4-c]pyridine-6-carboxamide] |  |  | > 10 | >10 | 
13 | CN(C)CC#Cc1cccc(-c2nc(C(=O)NCc3ccc4c(c3)OCO4)cc3c2[C@@H](CCO)N([S@@+]([O-])C(C)(C)C)C3)c1 [Compound 85, (R)-N-(Benzo[d][1,3]dioxol-5-ylmethyl)-2-((S)-tert-butylsulfinyl)-4-(3-(3-(dimethyl-amino)prop-1-yn-1-yl)phenyl)-3-(2-hydroxyethyl)-2,3-dihydro-1H-pyrrolo[3,4-c]pyridine-6-carboxamide] |  |  | 0.0437 | >10 | 
14 | CC(C)(C)[S@@+]([O-])N1Cc2cc(C(=O)N[C@@H]3CCN(Cc4ccccc4)C3)nc(-c3cccc(Br)c3)c2[C@H]1CCO [Compound 86, (R)-N-((R)-1-Benzylpyrrolidin-3-yl)-4-(3-bromophenyl)-2-((R)-tert-butylsulfinyl)-3-(2-hydroxyethyl)-2,3-dihydro-1H-pyrrolo[3,4-c]pyridine-6-carboxamide] |  |  | 2.85 | >10 | 
15 | CN(C)CC#Cc1cccc(-c2nc(C(=O)N[C@H]3CCN(Cc4ccccc4)C3)cc3c2[C@@H](CCO)N([S@+]([O-])C(C)(C)C)C3)c1 [Compound 89, (R)-N-((S)-1-benzylpyrrolidin-3-yl)-2-((R)-tert-butylsulfinyl)-4-(3-(3-(dimethylamino)prop-1-yn-1-yl)phenyl)-3-(2-hydroxyethyl)-2,3-dihydro-1H-pyrrolo[3,4-c]pyridine-6-carboxamide] |  |  | 0.028 | >10 | 
16 | CCOC(=O)c1cc2c(c(-c3cccc(C#CCN(C)C)c3)n1)[C@@H](CCO)N([S@+]([O-])C(C)(C)C)C2 [Compound 90, Ethyl (R)-2-((R)-tert-butylsulfinyl)-4-(3-(3-(dimethylamino)prop-1-yn-1-yl)phenyl)-3-(2-hydroxyethyl)-2,3-dihydro-1H-pyrrolo[3,4-c]pyridine-6-carboxylate] |  |  | 8.5 | >10 | 
